According to patent US20100056526A1, “HETEROMONOCYCLIC COMPOUND AND USE THEREOF” (Takeda Pharmaceutical Company Limited, priority 2006, published 2010):
Where a name gives a salt, the structure may show the parent alone. Read-outs that look alike come from different tables or passages of the source.

Assays:
human AT1 receptor = biological target: T1, human AT1 receptor (Homo sapiens, UniProt P30556); assay: Binding assay using human AT1 receptor-expressing CHO-K1 cell membrane fraction ([125I]-angiotensin II); conditions: 22.5 pM [125I]-angiotensin II, 9 μg AT1 membrane, 1 hr room temperature; read-out: AT1 receptor binding inhibitory action (IC50 (nM))
T1 construct: expressed in transfected cells; host or cells: CHO-K1
T1 sequence (P30556 1-359): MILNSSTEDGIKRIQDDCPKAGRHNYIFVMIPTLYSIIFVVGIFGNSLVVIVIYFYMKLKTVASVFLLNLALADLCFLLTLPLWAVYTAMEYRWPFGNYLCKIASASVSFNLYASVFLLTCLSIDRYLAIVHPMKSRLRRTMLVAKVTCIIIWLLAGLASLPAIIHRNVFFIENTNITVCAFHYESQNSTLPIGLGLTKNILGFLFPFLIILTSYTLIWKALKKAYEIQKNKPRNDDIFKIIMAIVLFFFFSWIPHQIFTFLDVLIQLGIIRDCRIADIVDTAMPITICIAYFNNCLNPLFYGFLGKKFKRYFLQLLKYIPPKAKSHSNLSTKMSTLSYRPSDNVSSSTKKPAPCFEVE
Procedure, shortened: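 CHO-K1 membranes stably expressing AT1 (9 μg) incubated with 22.5 pM [125I]-angiotensin II and compound in 50 mM Tris pH 7.4, 10 mM MgCl2, with or without 0.3 mg/mL fatty acid-free BSA, 1 hr at room temperature. Bound radioactivity counted after GF/C filtration; nonspecific binding with 1 μM CV-11974; IC50 calculated.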

PPARγ = biological target: T2, PPARγ (Homo sapiens, UniProt P37231); assay: Evaluation of PPARγ activating action (luciferase reporter in PPARγ:RXRα:4ERPP/CHO-K1 cells); format: cell-based; conditions: CHO-K1, 24 h, read-out: PPARγ activating action (activation % (10^−6 M))
T2 construct: expressed in transfected cells; host or cells: CHO-K1
T2 sequence (P37231 1-477 isoform P37231-2): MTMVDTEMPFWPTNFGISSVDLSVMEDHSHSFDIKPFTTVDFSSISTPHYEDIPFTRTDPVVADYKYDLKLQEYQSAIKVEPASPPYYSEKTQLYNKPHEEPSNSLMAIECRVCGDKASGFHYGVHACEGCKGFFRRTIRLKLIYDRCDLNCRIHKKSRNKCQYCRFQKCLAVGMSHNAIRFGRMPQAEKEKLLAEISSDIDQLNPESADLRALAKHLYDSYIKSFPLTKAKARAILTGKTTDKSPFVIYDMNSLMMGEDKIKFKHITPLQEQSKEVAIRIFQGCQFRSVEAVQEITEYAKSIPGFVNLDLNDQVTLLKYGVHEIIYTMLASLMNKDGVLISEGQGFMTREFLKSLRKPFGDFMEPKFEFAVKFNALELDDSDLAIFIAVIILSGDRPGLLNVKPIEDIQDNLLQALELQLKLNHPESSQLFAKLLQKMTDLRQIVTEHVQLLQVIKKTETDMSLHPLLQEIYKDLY
T2 sequence (P19793 1-462 partner): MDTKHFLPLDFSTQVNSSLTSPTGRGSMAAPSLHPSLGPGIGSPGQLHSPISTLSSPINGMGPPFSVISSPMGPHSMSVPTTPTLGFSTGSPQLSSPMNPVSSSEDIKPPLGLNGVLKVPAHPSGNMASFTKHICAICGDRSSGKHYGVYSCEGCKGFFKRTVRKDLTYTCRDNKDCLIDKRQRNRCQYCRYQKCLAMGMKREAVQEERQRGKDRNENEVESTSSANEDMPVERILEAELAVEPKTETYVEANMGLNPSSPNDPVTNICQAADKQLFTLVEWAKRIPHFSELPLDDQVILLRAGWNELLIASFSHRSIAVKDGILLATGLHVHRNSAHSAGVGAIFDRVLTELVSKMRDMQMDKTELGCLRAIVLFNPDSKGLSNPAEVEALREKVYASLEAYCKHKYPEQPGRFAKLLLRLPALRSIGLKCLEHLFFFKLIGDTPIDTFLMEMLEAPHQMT
Procedure, shortened: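 CHO-K1 cells stably carrying PPARγ, RXRα and a 4ERPP luciferase reporter were treated with compound for 1 day at 37 °C in F12 medium with 0.1% fatty acid-free BSA. Luciferase activity was read and scaled between no compound (0%) and reference agonist compound X at 1 μM (100%).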

[1] = test compound 10^−6 M, luciferase activity relative to control compound X (1 μM) = 100%, non-administration group = 0%

Structure (SMILES) | IC50 (human AT1 receptor) [nM] | activation at 1 µM (PPARγ; [1]) [%] | activation at 1 µM (PPARγ) [%]
CCCc1nc(C)c(Oc2ccc(OC)cc2)c(=O)n1Cc1ccc(-c2ccccc2-c2noc(O)n2)cc1 [Example 476, 5-(4-methoxyphenoxy)-6-methyl-3-{[2′-(5-oxo-4,5-dihydro-1,2,4-oxadiazol-3-yl)biphenyl-4-yl]methyl}-2-propylpyrimidin-4(3H)-one potassium salt] | 2.1 |  | 18.5
CCCCc1nc(CC)n(Cc2ccccc2)c(=O)c1Cc1ccc(-c2ccccc2-c2noc(=O)[nH]2)cc1 [Example 105, 3-benzyl-6-butyl-2-ethyl-5-{[2′-(5-oxo-4,5-dihydro-1,2,4-oxadiazol-3-yl)biphenyl-4-yl]methyl}pyrimidin-4(3H)-one] | 1.9 |  | 64.1
CCCc1nc(C)c(-c2ccc(OC(C)(C)C)cc2)c(=O)n1Cc1ccc(-c2ccccc2-c2noc(O)n2)cc1F [Example 475, 5-(4-tert-butoxyphenyl)-3-{[3-fluoro-2′-(5-oxo-4,5-dihydro-1,2,4-oxadiazol-3-yl)biphenyl-4-yl]methyl}-6-methyl-2-propylpyrimidin-4(3H)-one] | 2 | 28.7 | 
CCCCc1nc(C)n(CCCC)c(=O)c1Cc1ccc(-c2ccccc2-c2noc(=O)[nH]2)cc1 [Example 294, 3,6-dibutyl-2-methyl-5-{[2′-(5-oxo-4,5-dihydro-1,2,4-oxadiazol-3-yl)biphenyl-4-yl]methyl}pyrimidin-4(3H)-one] | 1.8 | 47.1 | 
CCCc1nc(C)n(-c2ccc(OC3CCC(=O)CC3)cc2)c(=O)c1Cc1ccc(-c2ccccc2-c2noc(O)n2)cc1F [Example 346, 5-{[3-fluoro-2′-(5-oxo-4,5-dihydro-1,2,4-oxadiazol-3-yl)biphenyl-4-yl]methyl}-2-methyl-3-{4-[(4-oxocyclohexyl)oxy]phenyl}-6-propylpyrimidin-4(3H)-one] | 1 | 21.8 | 
CCCc1nc(CC)c(C(O)C(C)C)c(=O)n1Cc1ccc(-c2ccccc2-c2noc(O)n2)cc1 (stereo not drawn) [Example 473, 6-ethyl-5-(1-hydroxy-2-methylpropyl)-3-{[2′-(5-oxo-4,5-dihydro-1,2,4-oxadiazol-3-yl)biphenyl-4-yl]methyl}-2-propylpyrimidin-4(3H)-one potassium salt] | 3.6 |  | 15.7
CCCc1nc(CC)n(-c2ccc(O[C@H]3CC[C@H](O)CC3)cc2)c(=O)c1Cc1ccc(-c2ccccc2-c2noc(=O)[nH]2)cc1 [Example 414, 2-ethyl-3-{4-[(trans-4-hydroxycyclohexyl)oxy]phenyl}-5-{[2′-(5-oxo-4,5-dihydro-1,2,4-oxadiazol-3-yl)biphenyl-4-yl]methyl}-6-propylpyrimidin-4(3H)-one] | 1.1 | 45 | 
CCCCc1nc(C2CC2)n(-c2ccccc2)c(=O)c1Cc1ccc(-c2ccccc2-c2noc(=O)[nH]2)cc1 [Example 310, 6-butyl-2-cyclopropyl-5-{[2′-(5-oxo-4,5-dihydro-1,2,4-oxadiazol-3-yl)biphenyl-4-yl]methyl}-3-phenylpyrimidin-4(3H)-one potassium salt] | 1.9 |  | 27.1
CCCc1nc(CC)n(-c2ccc(O[C@H]3CC[C@@H](O)CC3)cc2)c(=O)c1Cc1ccc(-c2ccccc2-c2noc(=O)[nH]2)cc1 [Example 415, 2-ethyl-3-{4-[(cis-4-hydroxycyclohexyl)oxy]phenyl}-5-{[2′-(5-oxo-4,5-dihydro-1,2,4-oxadiazol-3-yl)biphenyl-4-yl]methyl}-6-propylpyrimidin-4(3H)-one] | 1 | 49.7 | 

Continued, in another order:

IC50 (human AT1 receptor) [nM] | activation at 1 µM (PPARγ; [1]) [%] | Structure (SMILES) | activation at 1 µM (PPARγ) [%]
2.2 | 30 | CCCc1nc(CC)c(-c2ccc(OC(C)C)c(F)c2)c(=O)n1Cc1ccc(-c2ccccc2-c2noc(=O)[nH]2)cc1 [Example 460, 6-ethyl-5-(3-fluoro-4-isopropoxyphenyl)-3-{[2′-(5-oxo-4,5-dihydro-1,2,4-oxadiazol-3-yl)biphenyl-4-yl]methyl}-2-propylpyrimidin-4(3H)-one] | 
2.9 | 32.9 | CCCCc1nn(-c2ccc3c(c2)CC(C)(C)O3)c(=O)n1Cc1ccc(-c2ccccc2-c2noc(=O)[nH]2)cc1 [Example 136, 3-(4′-{[3-butyl-1-(2,2-dimethyl-2,3-dihydro-1-benzofuran-5-yl)-5-oxo-1,5-dihydro-4H-1,2,4-triazol-4-yl]methyl}biphenyl-2-yl)-1,2,4-oxadiazol-5(4H)-one] | 
1.6 | 62.9 | CCCc1nc(C)n(CC2CCCCO2)c(=O)c1Cc1ccc(-c2ccccc2-c2noc(=O)[nH]2)cc1 (stereo not drawn) [Example 81, 2-methyl-5-{[2′-(5-oxo-4,5-dihydro-1,2,4-oxadiazol-3-yl)biphenyl-4-yl]methyl}-6-propyl-3-(tetrahydro-2H-pyran-2-ylmethyl)pyrimidin-4(3H)-one] | 
1.8 | 33.5 | CCCc1nc(C)n(-c2ccc(OC(C)CF)cc2)c(=O)c1Cc1ccc(-c2ccccc2-c2noc(=O)[nH]2)cc1 (stereo not drawn) [Example 277, 3-[4-(2-fluoro-1-methylethoxy)phenyl]-2-methyl-5-{[2′-(5-oxo-4,5-dihydro-1,2,4-oxadiazol-3-yl)biphenyl-4-yl]methyl}-6-propylpyrimidin-4(3H)-one] | 
1.8 | 28.2 | CCCc1nc(C)n(-c2ccc(OC(C)COC)cc2)c(=O)c1Cc1ccc(-c2ccccc2-c2noc(=O)[nH]2)cc1 (stereo not drawn) [Example 293, 3-[4-(2-methoxy-1-methylethoxy)phenyl]-2-methyl-5-{[2′-(5-oxo-4,5-dihydro-1,2,4-oxadiazol-3-yl)biphenyl-4-yl]methyl}-6-propylpyrimidin-4(3H)-one] | 
1.2 | 62.9 | CCCc1nc(CC)n(-c2ccc(OC(C)(C)C(C)=O)cc2)c(=O)c1Cc1ccc(-c2ccccc2-c2noc(=O)[nH]2)cc1 [Example 445, 3-[4-(1,1-dimethyl-2-oxopropoxy)phenyl]-2-ethyl-5-{[2′-(5-oxo-4,5-dihydro-1,2,4-oxadiazol-3-yl)biphenyl-4-yl]methyl}-6-propylpyrimidin-4 (3H)-one] | 
1.6 | 30.5 | CCCOc1ccc(-n2c(C)nc(CCC)c(Cc3ccc(-c4ccccc4-c4noc(=O)[nH]4)cc3)c2=O)cc1 [Example 249, 2-methyl-5-{[2′-(5-oxo-4,5-dihydro-1,2,4-oxadiazol-3-yl)biphenyl-4-yl]methyl}-3-(4-propoxyphenyl)-6-propylpyrimidin-4(3H)-one] | 
1.5 | 55.1 | CCCCc1nc(C)n(Cc2ccc(OC)cc2)c(=O)c1Cc1ccc(-c2ccccc2-c2noc(=O)[nH]2)cc1 [Example 58, 6-butyl-3-(4-methoxybenzyl)-2-methyl-5-{[2′-(5-oxo-4,5-dihydro-1,2,4-oxadiazol-3-yl)biphenyl-4-yl]methyl}pyrimidin-4(3H)-one] | 
1.8 | 38.3 | CCCc1nc(C)n(-c2ccc(OC(C)C)cc2)c(=O)c1Cc1ccc(-c2ccccc2-c2noc(=O)[nH]2)cc1F [Example 141, 5-{[3-fluoro-2′-(5-oxo-4,5-dihydro-1,2,4-oxadiazol-3-yl)biphenyl-4-yl]methyl}-3-(4-isopropoxyphenyl)-2-methyl-6-propylpyrimidin-4(3H)-one] | 
